Measurements as given in paper PMC8958501, “Hypothesis-Driven, Structure-Based Design in Photopharmacology: The Case of eDHFR Inhibitors” (Journal of Medicinal Chemistry, 2022).
Read-outs that look alike come from different tables or passages of the source.

Assays:
[1] = Thermal cis-to-trans isomerization (thermal half-life of the metastable cis isomer); type: physicochemical; conditions: for t1/2 DMSO (25 °C): thermal cis-to-trans isomerization, 20 µM; for thermal lifetime t1/2: at 25 and 37 °C
Procedure: (§1) UV–vis absorption spectra were recorded on an Agilent 8453 UV–vis Spectrophotometer. Photochemical isomerization (photoswitching) was achieved by irradiation from the side in a fluorescence quartz cuvette (width = 1.0 cm) using a custom-built (Prizmatix/Mountain Photonics) multiwavelength fiber coupled LED system (FC6-LED-WL) including the following LEDs: 365A, 390B, 420Z, 445B, 535R, 630CA. A detailed description of the setup was published by us recently.[84] Alternatively, the samples were irradiated at 340 nm using the LOT Quantum design setup with 300 W Xe-Arc lamp, using the Thorlabs FB340-10 Bandpass filter. A Quantum Northwest TC1 temperature controller was used to maintain the temperature at 25 °C during photochemical studies. To analyze the fatigue resistance of the compounds, repeated irradiation cycles were performed using alternating wavelengths. The decrease and increase of the π–π* transition band was followed by UV–vis spectroscopy (Agilent 8453) at 25 °C while stirring. To determine the thermal lifetime for the metastable cis isomer, samples were irradiated with the custom-built setup until photostationary state (PSS) was reached. Then, the cuvettes were placed in a JASCO V750 spectrophotometer with a PTC 424S/15 temperature controller, and the recovery of the π–π* transition was followed while stirring at 25 °C (for solutions in DMSO and eDHFR assay buffer) or 37 °C (for solutions in 10 mM Tris-HCl buffer pH 7.0). The data were fitted using a first-order exponential function in OriginPro 2018. For the PSD determination by ^1H NMR spectroscopy, 0.5 mL of a 2 mM solution of the respective compound in DMSO-d6 was thermally equilibrated by briefly (∼10 s) heating the sample with a heat gun. Subsequently, the sample was irradiated in a glass NMR tube with a 365 nm hand-held lamp (Spectroline ENB-280C) or the LEDs of the custom-built setup. Detailed data are reported in the SI.

[2] = Fatigue studies: repeated photoisomerization in the presence of GSH; type: physicochemical; conditions: eDHFR assay buffer, 10 mM GSH
Procedure: as §1

[3] = target: T1, eDHFR (Escherichia coli, UniProt P0ABQ4); test: biochemical; conditions: for light-induced change in eDHFR inhibition (dark IC50 vs irradiated IC50): irradiation with λ1 = 365 nm;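 as to all read-outs here: purified E. coli DHFR colorimetric assay, enzyme with NADPH 3 min then inhibitor (10^-12 to 10^-5 M) 7 min, rate ΔAbs/s relative to DMSO control (1% v/v), triplicates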
T1 construct: made in house; host or cells: E. cloni EXPRESS BL21 (DE3) cells (Lucigen), pT7-SC1 plasmid
Procedure: A 10 mM stock solution of the inhibitor in DMSO was divided into two parts. One half was thermally adapted with a heat gun for 1 min to obtain only the trans isomer.
The compounds were tested as eDHFR inhibitors via a colorimetric assay (Sigma-Aldrich, Catalog No. CS0340). Instead of the human DHFR protein provided in the kit, the in-house purified eDHFR was used. In a 3 mL cuvette, eDHFR (∼20 ng) was incubated with NADPH (60 μM, final) for 3 min, followed by an incubation with the inhibitor (from 10^–5 to 10^–12 M, final) for an additional 7 min. […] The concentration of DMSO in the final volume was 1% v/v for all enzymatic reactions. The measurements were performed in triplicates. For the control enzymatic reactions, eDHFR was incubated with NADPH and DMSO (1% v/v, final). […] The related control enzymatic reaction was also performed under continuous irradiation with λ1 = 390 nm light. Linear regression was performed in Microsoft Excel to calculate ΔAbs/s. % eDHFR activity was calculated as the ratio between ΔAbs/s for the sample and ΔAbs/s for the control reaction. GraphPadPrism 5.0 (GraphPad Software, Inc., version 5.00) was used for the determination of the IC50 of each inhibitor. Nonlinear regression was used for data fitting.

[4] = Solubility in eDHFR assay buffer; type: physicochemical; conditions: aqueous with cosolvent or surfactant or cyclodextrin, with 20% DMSO as an additive
[5] = system: E. coli CS1562; test: Antibacterial activity assay (MIC, bacterial growth curves); type: cell-based, Escherichia coli; conditions: for MIC: Escherichia coli, E. coli CS1562, 24 h
Procedure: A culture of E. coli CS1562 was grown overnight in LB medium (10 g/L tryptone, 5 g/L yeast extract, 5 g/L NaCl) containing tetracycline (10 μg/mL) at 37 °C. The OD600 was measured, and the culture was diluted to 0.002 OD600 in LB medium. Series dilutions of the compounds were prepared in DMSO and diluted 25 times in sterile LB medium in a black sterile Eppendorf tube. […] Subsequently, the dark samples were added to the 96-well plate (100 μL, triplicates). Lastly, the LB medium containing E. coli CS1562 at 0.002 OD was added to every well (100 μL). The cells were grown overnight at 37 °C in a plate reader (Synergy H1, Biotek), and the OD600 was measured every 10 min with a 10 s shaking step before each measurement. The OD600 curves were background-corrected by subtracting the value at t = 0. […] Detailed data are reported in the SI.

[6] = IC50 Dark, dark-adapted (thermally adapted, trans isomer)
[7] = irradiated to PSS with λ1 (340 nm for 3, 365 nm for 6-15), read-out: IC50 Light
[8] = light or radiation study, after irradiation with λ1 = 365 nm, read-out: MIC Light
[9] = light or radiation study, after irradiation, read-out: MIC (µM) after irradiation
[10] = light or radiation study, before irradiation, read-out: MIC (µM) before irradiation
[11] = after irradiation, read-out: DHFR inhibition IC50 (nM) after irradiation

T1 sequence (P0ABQ4 whole entry): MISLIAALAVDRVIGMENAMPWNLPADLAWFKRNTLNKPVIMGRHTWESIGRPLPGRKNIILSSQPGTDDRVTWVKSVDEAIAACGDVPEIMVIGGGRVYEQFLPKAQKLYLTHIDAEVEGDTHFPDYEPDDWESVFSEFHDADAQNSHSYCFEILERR

Row | Structure (SMILES) | melting point [°C] | t1/2 DMSO (25 °C) [1] [h] | fatigue / resistance to reduction upon repeated irradiation cycles [2] | IC50 [3, 6] [nM] | IC50 [3, 7] [nM] | thermal lifetime t1/2 [1] [h] | solubility [4] [µM] | MIC [5, 8] [µM] | MIC [5, 9] [µM] | MIC [5, 10] [µM] | MIC ([5]; dark, read-out: MIC Dark) [µM] | light-induced difference in antibacterial activity (dark MIC vs irradiated MIC) ([5]; irradiation with λ1 = 365 nm, E. coli CS1562) [fold] | IC50 [3, 11] [nM] | IC50 ([3]; irradiated with λ1 (1: continuous irradiation at 390 nm), read-out: IC50 Light) [nM] | light-induced change in eDHFR inhibition (dark IC50 vs irradiated IC50) [3] | MIC / bacterial growth inhibition, same in both forms ([5]; both before and after irradiation with λ1 = 365 nm, E. coli CS1562) [µM] | IC50 ([3]; before irradiation, read-out: DHFR inhibition IC50 (nM) before irradiation) [nM]
1 | Nc1ncc(-c2cccc(/N=N/c3ccccc3)c2)c(N)n1 [Compound 3, (E)-5-[3-(Phenyldiazenyl)phenyl]pyrimidine-2,4-diamine] | 209 to 211 | > 24 | no sign of fatigue | 280 | 710 | – | – | – | – | – | – | – | – | – | – | – | –
2 | COC(C)(C#Cc1cnc(N)nc1N)c1ccc(/N=N/c2ccccc2)cc1 (stereo not drawn) [Compound 6, (E)-5-{3-Methoxy-3-[4-(phenyldiazenyl)phenyl]but-1-yn-1-yl}pyrimidine-2,4-diamine] | 149 to 150 | > 24 | robust photoswitching | 370 | 160 ± 62 | > 24 | ≤ 5 | 20 | 20 | > 40 | > 40 | > 2 | 160 ± 62 | 160 | 2 fold | – | –
3 | COC(C)(C#Cc1cnc(N)nc1N)c1cccc(/N=N/c2ccccc2)c1 (stereo not drawn) [Compound 7, (E)-5-{3-Methoxy-3-[3-(phenyldiazenyl)phenyl]but-1-yn-1-yl}pyrimidine-2,4-diamine] | 105 to 107 | > 24 | robust photoswitching | – | – | > 24 | ≤ 5 | 20 | 20 | 20 | 20 | – | 250 ± 140 | – | not significant | 20 | 190 ± 40
